The values below come from US12016939B2, “Skin treatment methods and compositions for transdermal delivery of active agents” (Topix Pharmaceuticals, Inc., priority 2020, dated 2024).

Data set [1] concerns photoaged females. The experiment in a line: Adverse experiences and discontinuations in the clinical study.
Source text: A single-site, double-blind controlled comparative study enrolled 45 photoaged females ages 35-65, Fitzpatrick skin types I-IV, with moderate wrinkling. Subjects who used facial retinoids within 3 months of screening, and/or facial alpha-hydroxy acids within 1 month were excluded. Subjects were randomized 2:1 into the following groups:
The 0.25% retinal serum was used twice weekly for week 1, then every other night for week 2, then every night for weeks 3 and 4. The Test Moisturizer (Lipid Replenishing Cream, TOPIX Pharmaceuticals, Inc, Amityville, NY) was placed on top of the retinal serum at each nightly application and every morning.
Cell 2: 15 subjects applied 0.025% tretinoin cream for 4 weeks. The 0.025% tretinoin cream was used twice weekly for the week 1, then every other night for week 2, then every night for weeks 3 and 4. Test Moisturizing cream (CeraVe Moisturizing Cream, L'Oreal, NY) was placed on top of the tretinoin cream (Ortho Dermatologies, NJ) at each application and every morning.
The subject of data set [2] is photoaged females. The experiment in a line: Investigator efficacy: facial skin appearance parameters graded on 5-point ordinal scale. As to conditions: longitudinal intragroup. The data set is classed as in vivo, human. From the text:
(§1) The dermatologist-investigator and subjects assessed the following facial efficacy parameters: overall severity of photodamage, dryness, lack of tactile smoothness, lack of visual smoothness, lack of softness, lack of luminosity, lack of radiance, lack of firmness, poor skin texture, fine facial wrinkles, crow's feet, dyschromia, and crepey cheek skin texture. All assessments were graded on a 5-point ordinal scale (0=none, 1=minimal, 2=mild, 3=moderate, 4=severe). […] The investigator and subjects referred to baseline images (front, right and left side images) of the subjects in completing this evaluation.
(§2) Along with descriptive statistics (means, standard deviations, and percentages), investigator ordinal nonparametric data was analyzed using the Wilcoxon signed rank test and sign test for paired comparison at different time points within and between groups. Change was considered significant at a p-value of less than or equal to 0.05.
The investigator graded facial skin appearance parameters using a 5-point ordinal scale (0=none, 1=minimal, 2=mild, 3=moderate, 4=severe) at baseline (visit 1), week 4 (visit 2), and week 8 (visit 3), and week 12 (visit 4).

For data set [3], the system named is photoaged females. The experiment in a line: Subject overall clinical improvement from baseline, 5-point scale. Particulars: after 12 weeks; scale 1=much improved to 5=worse. The data set is classed as in vivo, human.
Source text: as §1

For data set [4], the system named is photoaged females. Also noted: species or system human. As to conditions: in vivo. The source says: Clinical photography was captured at each office visit using visible light of the central, right, and left face with a VISIA CR43 camera system (Canfield Scientific, NJ). Noninvasive assessments for barrier function in the form of transepidermal water loss (TEWL) measurements were taken from the left face using Evaporimeter, Cyberderm, Broomall, PA
TEWL (Evaporimeter, Cyberderm, Broomall, PA) measurements were taken at baseline, week 8, and week 12. […] TEWL increase was 16% lower in the retinol group as compared to the tretinoin group.

Data set [5] relates to photoaged females. The experiment in a line: Subject efficacy: self-assessed photodamage parameters, 5-point ordinal scale. The data set is classed as in vivo, human.
Source text: as §1, §2
Subjects assessed their skin appearance across various photodamage parameters using a 5-pointordinal scale (0=none, 1=minimal, 2=mild, 3=moderate, 4=severe) at baseline, week 4, week 8, and week 12.

Consider `CC1=C(/C=C/C(C)=C/C=C/C(C)=C/C(=O)O)C(C)(C)CCC1` [tretinoin], for which the “subjects discontinued due to retinoid tolerability issues” value in data set [1] (12-week study, Cell 1 30 subjects, Cell 2 15 subjects) is reported as “one”. Further, the serious adverse events result in data set [1] (during the conduct of the study) is listed as “No serious adverse events”. Further, in data set [2] (week 4), the “luminosity, investigator” value is “statistically significant improvement”; the “radiance, investigator” value is “statistically significant improvement”; the “softness, investigator” value was “statistically significant improvement”; the “tactile smoothness, investigator” value is “statistically significant improvement”. The “visual smoothness, investigator” value in data set [2] (week 4, retinol P=0.031) is “no significance”. In data set [2] (week 8), the “firmness, investigator” value is “statistical significance”; the “luminosity, investigator” value is “statistical significance”; the “overall photoaging appearance, investigator” value is listed as “statistical significance”; the “radiance, investigator” value was “statistical significance”. Further, in data set [2] (week 8), the “skin texture, investigator” value is listed as “statistical significance”; the “softness, investigator” value was “statistical significance”; the “tactile smoothness, investigator” value is on record as “statistical significance”; the “visual smoothness, investigator” value is “statistical significance”. In addition, the “skin dryness, investigator” value in data set [2] (week 8, retinol P<0.001) is “not seen”. The “subject overall clinical improvement from baseline, on average reported” value in data set [3] is reported as “much-improved”. In addition, the “increase in TEWL” value in data set [4] (female, human, 12 weeks) was 104%. Further, the “barrier damage (TEWL), intragroup” value in data set [4] was “induced barrier damage”. Moreover, in data set [5] (all time points), the “subject assessed improvement, intragroup longitudinal” value was “experienced improvement”. In data set [5] (week 8, intragroup, retinol serum P<0.001), the “softness, subject” value was “not seen until week 8”. For the same compound, the “most parameters, subject” value in data set [5] (week 12, intragroup) is “statistical significance”.
